system: bacterial strain LF82 binding to the glycoprotein BSA-(Mannose)3; test: Bacterial Binding Assay (BBA); format: cell-based, Escherichia coli; conditions: read-out: Bacterial Binding Assay IC50
Description: The purpose of the Bacterial Binding Assay (BBA) is to determine the inhibition activity of selective FimH antagonists on the bacterial strain LF82 binding to the glycoprotein BSA-(Mannose)3.
Below is a list of the Materials used to run the BBA are described below. • 1. LB broth: Supplier: Gibco, #10855 • 2. D-PBS: Supplier: Wisent, #311-425-CL • 3. LB agar plates • 4. 96-well black plate (high binding): Supplier: Costar, #3925 • 5. TopSeal™-A adhesive sealing films; Supplier PerkinElmer, #6005185 • 6. Carbonate-bicarbonate buffer pH 9.6 tablets, Supplier: Medicago, #09-8922-24 • 7. Water, Supplier: Gibco, #15230-162 • 8. Bovine serum albumin (BSA): Supplier: Sigma, #A-7888 • 9. (Man)-3-BSA (α1-3, α1-6 Mannotriose-BSA, 1 mg), V-Labs, #NGP1336, lot#HGDX37-169-1 • 10. Tween 20: Supplier: Sigma, #P9416 • 11. Bright-Glo Luciferase Assay System: Supplier: Promega, #E2610 • 12. LF82/Luciferase strain: Invasive ability of an Escherichia coli strain isolated from the ileal mucosa of a patient with Crohn's disease. Boudeau J, Glasser A L, Masseret E, Joly B, Darfeuille-Michaud A, Infect Immun. 1999, 67(9), 4499-509
Solutions and buffers used to run the BBA are described below. • 1. 0.04M carbonate-bicarbonate buffer (coating buffer) • 2. […] 1 mg of (Man)-3-BSA in 25 mL of water. • 3. 4000 ng/mL BSA • 4. 40 ng/mL BSA • 5. 1 μg/mL BSA-(Man)3: 150 μL of 40 ng/mL BSA-(Man)3+5.85 mL of 40 ng/mL BSA • 6. 0.5 μg/mL BSA-(Man)3 in 0.02M carbonate-bicarbonate buffer. • 7. 20 ng/mL BSA in 0.02M carbonate-bicarbonate buffer • 8. Blocking buffer (2% BSA/DPBS): 1 g of BSA in 50 mL D-PBS • 9. 2× binding buffer (0.2% BSA/D-PBS): 5 mL of blocking buffer+45 mL D-PBS. • 10. Washing buffer (D-PBS/0.01% Tween 20): 10 μL of Tween 20 in 100 mL D-PBS. • 11. 1× Bright-Glo Luciferase substrate:Dilute 1:1 the Bright-Glo Luciferase Assay System with D-PBS The experimental protocol to run the BBA is described below.
Overnight culture of LF82/Luciferase strain: Into two Falcon 50 mL tubes, add 20 mL of LB+20 μL of 50 mg/mL Kanamycin and inoculate with a loop from glycerol stock of the LF82/Luciferase strain. Incubate overnight at 37° C. with no shaking.
Glycoprotein coating of 96-well plates: Add 100 μL/well of 0.5-2 μg/mL BSA-(Man)3. 20 μg/mL BSA is used as the control background. Seal plate using an adhesive sealing film and incubate overnight at room temperature. Wash the 96-well plate three times with 150 μL/well of D-PBS, add 170 μL/well of blocking solution and incubate 45 min (minimum) at room temperature.
Preparation of bacterial suspension: Mix the two cultures tubes (40 mL) and perform a 1:10 dilution in LB (900 μl LB+100 μl culture. Measure optical density (OD) of the bacterial cultures. OD1 ˜5×10^8 cells/mL. Centrifuge LF82 culture for 20 min at 3500 rpm at room temperature. Re-suspend bacterial pellet in D-PBS and centrifuge again for 20 min at 3500 rpm. Re-suspend bacterial pellet in D-PBS to obtain a bacterial concentration of 2×10^9 bacteria/mL. Dilute 1/10 in D-PBS to obtain a final bacterial concentration of 2×10^8 bacteria/mL (=107 bacteria/50 μL). Perform 1/10 serial dilutions in LB of each bacterial suspension, plate 10 μL of dilutions on LB agar plates (final dilutions of 10^−7) and incubate overnight at 37° C. and count CFUs to determine the actual bacteria density in the assay.
Bacterial binding assay: Add 147 μL 2× binding buffer to compound plate (containing 3 μL of compound). After blocking step is performed (at least 45 min), wash plates three times with 200 μL/well of D-PBS. With a 100 μL multichannel manual pipettor, add 50 μL/well of compound diluted in 2× binding buffer. With a 100 μL multichannel manual pipettor, add 50 μL/well of bacterial suspension. Agitate at slow speed for 1 min and incubate 40-75 min at room temperature. Wash 5 times with 150 μL/well of washing buffer and then once with D-PBS. Add 100 μL/well of 1× Bright-Glo Luciferase substrate. […]

Compound	IC50
CNC(=O)c1cc(F)cc(-c2ccc(O[C@H]3O[C@H](CO)[C@@H](O)[C@H](O)[C@]3(C)O)c(Cl)c2)c1 [Compound 56]	0.024 ± 0.0005 µM
Cc1cc(-c2cccc(-c3ccc(O[C@H]4O[C@H](CO)[C@@H](O)[C@H](O)[C@]4(C)O)c(C)c3)c2)ccc1O[C@H]1O[C@H](CO)[C@@H](O)[C@H](O)[C@]1(C)O [Example 120, (2R,3S,4S,5S,6R)-6-(hydroxymethyl)-3-methyl-2-[2-methyl-4-[3-[3-methyl-4-[(2R,3S,4S,5S,6R)-3,4,5-trihydroxy-6-(hydroxymethyl)-3-methyl-tetrahydropyran-2-yl]oxy-phenyl]phenyl]phenoxy]tetrahydro-pyran-3,4,5-triol]	0.003 ± 0.002 µM
C[C@@]1(O)[C@@H](OCc2ccccc2)O[C@H](CO)[C@@H](O)[C@@H]1O [Compound 37]	> 10 µM
C[C@@]1(O)[C@@H](Oc2ccc(-c3ccc(C(=O)NC4CC4)c(Cl)c3)cc2Cl)O[C@H](CO)[C@@H](O)[C@@H]1O [Compound 54]	0.042 ± 0.007 µM
COc1ccc(OC)c(-c2ccc(O[C@H]3O[C@H](CO)[C@@H](O)[C@H](O)[C@]3(C)O)c(C)c2)c1 [Compound 95]	0.024 ± 0.012 µM
OC[C@H]1O[C@@]2(CCc3cc(-c4cncc(-c5ccc6c(c5)CC[C@]5(O6)O[C@H](CO)[C@@H](O)[C@H](O)[C@@H]5O)c4)ccc3O2)[C@@H](O)[C@@H](O)[C@@H]1O [Example 129, (2R,3′S,4′S,5′S,6′R)-6′-(hydroxymethyl)-6-[5-[(2R,3′S,4′S,5′S,6′R)-3′,4′,5′-trihydroxy-6′-(hydroxymethyl)spiro[chromane-2,2′-tetrahydropyran]-6-yl]-3-pyridyl]spiro[chromane-2,2′-tetrahydropyran]-3′,4′,5′-triol]	0.011 ± 0.006 µM
Cc1cc(-c2cncc(-c3ccc(O[C@H]4O[C@H](CO)[C@@H](O)[C@H](O)[C@]4(C)O)c(C)c3)c2)ccc1O[C@H]1O[C@H](CO)[C@@H](O)[C@H](O)[C@]1(C)O [Example 119, (2R,3S,4S,5S,6R)-6-(hydroxymethyl)-3-methyl-2-[2-methyl-4-[5-[3-methyl-4-[(2R,3S,4S,5S,6R)-3,4,5-trihydroxy-6-(hydroxymethyl)-3-methyl-tetrahydropyran-2-yl]oxy-phenyl]-3-pyridyl]phenoxy]tetrahydropyran-3,4,5-triol]	0.0006 ± 0.0002 µM
C[C@@]1(O)[C@@H](Oc2ccc(N3CCc4cc([N+](=O)[O-])ccc43)cc2Cl)O[C@H](CO)[C@@H](O)[C@@H]1O [Example 19, (2R,3S,4S,5S,6R)-2-(2-chloro-4-(5-nitroindolin-1-yl)phenoxy)-6-(hydroxymethyl)-3-methyltetrahydro-2H-pyran-3,4,5-triol]	0.013 ± 0.006 µM
C[C@@]1(O)[C@@H](Oc2ccc(-c3ccc(O[C@H]4O[C@H](CO)[C@@H](O)[C@H](O)[C@]4(C)O)c(Cl)c3)cc2Cl)O[C@H](CO)[C@@H](O)[C@@H]1O [Example 107, (2R,3S,4S,5S,6R)-2-[2-chloro-4-[3-chloro-4-[(2R,3S,4S,5S,6R)-3,4,5-trihydroxy-6-(hydroxymethyl)-3-methyl-tetrahydropyran-2-yl]oxy-phenyl]phenoxy]-6-(hydroxymethyl)-3-methyl-tetrahydropyran-3,4,5-triol]	0.005 ± 0.001 µM
C[C@@]1(O)[C@@H](Oc2ccc(-c3ccc(O[C@H]4O[C@H](CO)[C@@H](O)[C@H](O)[C@]4(C)O)c(OC(F)(F)F)c3)cc2OC(F)(F)F)O[C@H](CO)[C@@H](O)[C@@H]1O [Example 114, (2R,3S,4S,5S,6R)-6-(hydroxymethyl)-3-methyl-2-[2-(trifluoromethoxy)-4-[3-(trifluoromethoxy)-4-[(2R,3S,4S,5S,6R)-3,4,5-trihydroxy-6-(hydroxymethyl)-3-methyl-tetrahydropyran-2-yl]oxy-phenyl]phenoxy]tetrahydropyran-3,4,5-triol]	0.001 ± 0.001 µM
COc1ccc(C#N)cc1-c1ccc(O[C@H]2O[C@H](CO)[C@@H](O)[C@H](O)[C@]2(C)O)c(C)c1 [Compound 79]	0.02 ± 0.005 µM
Cc1cc(-c2cccc([N+](=O)[O-])c2)ccc1O[C@H]1O[C@H](CO)[C@@H](O)[C@H](O)[C@]1(C)O [Example 18, (2R,3S,4S,5S,6R)-6-(hydroxymethyl)-3-methyl-2-[2-methyl-4-(3-nitrophenyl)phenoxy]tetrahydropyran-3,4,5-triol]	0.013 ± 0.003 µM
Cc1cc(-c2cccc(C(=O)NC[C@H]3OC(O)[C@H](O)[C@@H](O)[C@@H]3O)c2)ccc1O[C@H]1O[C@H](CO)[C@@H](O)[C@H](O)[C@]1(C)O (some centres unmarked) [Compound 64]	0.02 ± 0.0005 µM
Cc1cc(-c2cccc(C(=O)N3CCN(C)CC3)c2)ccc1O[C@H]1O[C@H](CO)[C@@H](O)[C@H](O)[C@]1(C)O [Compound 68]	0.026 ± 0.004 µM
OC[C@H]1O[C@@]2(CCc3cc(-c4ccc5c(c4)CC[C@]4(O5)O[C@H](CO)[C@@H](O)[C@H](O)[C@@H]4O)ccc3O2)[C@@H](O)[C@@H](O)[C@@H]1O [Example 126, (2R,3′S,4′S,5′S,6′R)-6′-(hydroxymethyl)-6-[(2R,3′S,4′S,5′S,6′R)-3′,4′,5′-trihydroxy-6′-(hydroxymethyl)spiro[chromane-2,2′-tetrahydropyran]-6-yl]spiro[chromane-2,2′-tetrahydropyran]-3′,4′,5′-triol]	0.008 µM
Cc1cc(-c2ccc(O[C@H]3O[C@H](CO)[C@@H](O)[C@H](O)[C@]3(C)O)c(C)c2)ccc1O [Compound 104]	0.069 ± 0.023 µM
Cc1cc(-c2cccc(C(=O)N[C@@H](CO)[C@@H](C)O)c2)ccc1O[C@H]1O[C@H](CO)[C@@H](O)[C@H](O)[C@]1(C)O [Compound 72]	0.036 ± 0.009 µM
COc1cc(Cl)ccc1-c1ccc(O[C@H]2O[C@H](CO)[C@@H](O)[C@H](O)[C@]2(C)O)c(C)c1 [Compound 81]	0.185 ± 0.015 µM
CNC(=O)c1cccc(-c2ccc(O[C@H]3O[C@H](CO)[C@@H](O)[C@H](O)[C@]3(C)O)c(Cl)c2)c1 [Example 15, 3-[3-chloro-4-[(2R,3S,4S,5S,6R)-3,4,5-trihydroxy-6-(hydroxymethyl)-3-methyl-tetrahydropyran-2-yl]oxy-phenyl]-N-methyl-benzamide]	0.013 ± 0.002 µM
COc1c(F)cc(-c2ccc(O[C@H]3O[C@H](CO)[C@@H](O)[C@H](O)[C@]3(C)O)c(C)c2)cc1F [Compound 98]	0.016 ± 0.007 µM
Cc1cc(-c2cc(C#N)ccc2C)ccc1O[C@H]1O[C@H](CO)[C@@H](O)[C@H](O)[C@]1(C)O [Compound 101]	1.19 ± 0.215 µM
Cc1cc(-c2ccc(O[C@H]3O[C@H](CO)[C@@H](O)[C@H](O)[C@]3(C)O)c(C)c2)ccc1F [Compound 87]	0.087 ± 0.033 µM
Cc1cc(-c2ccc(F)c(F)c2)ccc1O[C@H]1O[C@H](CO)[C@@H](O)[C@H](O)[C@]1(C)O [Compound 88]	2.95 ± 0.15 µM
CNC(=O)c1cccc(-c2ccc(O[C@H]3O[C@H](CO)[C@@H](O)[C@H](O)[C@@]3(O)COCCOCc3ccccc3)c(C)c2)c1 [Compound 49]	0.28 ± 0.02 µM
Cc1cc(-c2cc(Cl)ccc2F)ccc1O[C@H]1O[C@H](CO)[C@@H](O)[C@H](O)[C@]1(C)O [Compound 77]	0.15 µM
Cc1cc(-c2cc(F)cc(F)c2)ccc1O[C@H]1O[C@H](CO)[C@@H](O)[C@H](O)[C@]1(C)O [Compound 76]	0.024 ± 0.003 µM
